Here are results for 8 compounds from PubChem BioAssay (NCI).

Test systems include SR leukemia; RXF 393 renal; U251 CNS; SNB-75 CNS; HCT-116 colon; SF-295 CNS; OVCAR-8 ovarian; HOP-62 NSCLC; NCI-H460 lung; UACC-257 melanoma.
Test in all cases: NCI tumour cell line growth inhibition, 48 h

“And” between values parts separate entries of the source, which are not always exact repeats. Equal values may be shown once.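 In this assay, cells in 96-well plates receive the compound at five concentrations for 48 hours. Endpoints are linearly interpolated between the surrounding concentrations. The concentration for 50% growth inhibition is given as GI50. TGI: concentration producing complete growth inhibition.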

Turning to `Cc1[nH]c(=O)[nH]c(=O)c1N(CCF)CCCl`, the TGI with SR leukemia is 1870 µM; in the experiment with RXF 393 renal, 296 µM and 662 µM and 596 µM; in the experiment on U251 CNS, 693 µM and 1220 µM and 1200 µM; in the experiment on SNB-75 CNS, 617 µM and 1420 µM and 1010 µM; in the experiment on HCT-116 colon, 662 µM and 1570 µM and 1010 µM; in the experiment on SF-295 CNS, 600 µM and > 25 µM and 1140 µM. The TGI in the experiment on OVCAR-8 ovarian was 632 µM and 1020 µM and 1140 µM; in the experiment on HOP-62 NSCLC, 872 µM and 1100 µM and 1150 µM; with NCI-H460 lung it was 689 µM and 834 µM and 633 µM; with UACC-257 melanoma, 465 µM and 1070 µM and 855 µM. Further, the GI50 in the experiment with RXF 393 renal was 128 µM and 265 µM; with U251 CNS, 212 µM; with SNB-75 CNS, 268 µM and 592 µM and 493 µM; with HCT-116 colon, 243 µM and 491 µM; with SF-295 CNS, > 25 µM and 402 µM; with OVCAR-8 ovarian, 210 µM and 388 µM and 217 µM. Besides, the GI50 in the experiment on HOP-62 NSCLC is 439 µM; in the experiment with NCI-H460 lung, 118 µM and 264 µM and 171 µM; with UACC-257 melanoma, 228 µM.
As to `CCOC(=N)CC(=O)Nc1ccc(Cl)cc1`, the TGI in the experiment with SR leukemia, in the experiment on RXF 393 renal, with U251 CNS, in the experiment with SNB-75 CNS, in the experiment on HCT-116 colon and in the experiment with SF-295 CNS was over 100 µM each time. In addition, the TGI in the experiment on OVCAR-8 ovarian, with HOP-62 NSCLC, in the experiment on NCI-H460 lung and with UACC-257 melanoma was over 100 µM throughout.
Consider `O=[N+]([O-])c1ccc(N2CCN(Cc3ccccc3)CC2)c2c1no[n+]2[O-]`, for which the GI50 is 0.0751 µM in the experiment on SR leukemia; 1.31 µM in the experiment on RXF 393 renal; 1.24 µM in the experiment on U251 CNS; 0.954 µM in the experiment on SNB-75 CNS; 0.95 µM in the experiment with HCT-116 colon; 1.38 µM with SF-295 CNS. The GI50 in the experiment on OVCAR-8 ovarian was 1.59 µM; with HOP-62 NSCLC, 1.22 µM; with NCI-H460 lung, 1.61 µM; in the experiment with UACC-257 melanoma it was 1.68 µM. Moreover, the TGI in the experiment with SR leukemia was 0.973 µM; in the experiment on RXF 393 renal, 2.76 µM; in the experiment on U251 CNS, 2.65 µM; with SNB-75 CNS, 2.26 µM; with HCT-116 colon, 2.38 µM; in the experiment on SF-295 CNS it was 2.84 µM. Also, the TGI in the experiment on OVCAR-8 ovarian was found to be 5.25 µM; with HOP-62 NSCLC, 2.77 µM; in the experiment with NCI-H460 lung, 3.52 µM; in the experiment with UACC-257 melanoma, 3.86 µM.
`O=[N+]([O-])c1cnc(Sc2ccncn2)c([N+](=O)[O-])c1`: the GI50 in the experiment on SR leukemia was 2.67 µM; in the experiment on RXF 393 renal, 1.97 µM; in the experiment with U251 CNS, 29.4 µM; in the experiment on SNB-75 CNS it was 14.4 µM; with HCT-116 colon, 1.84 µM; in the experiment on SF-295 CNS, over 100 µM. Also, the GI50 is 11.7 µM with OVCAR-8 ovarian, 14.6 µM in the experiment with HOP-62 NSCLC, 23 µM in the experiment with NCI-H460 lung and 1.78 µM in the experiment on UACC-257 melanoma. Also, the TGI with SR leukemia was over 100 µM; with RXF 393 renal it was 4.17 µM; in the experiment with U251 CNS it was over 100 µM; in the experiment with SNB-75 CNS, 27.7 µM; in the experiment on HCT-116 colon it was 3.59 µM; in the experiment on SF-295 CNS, over 100 µM. The TGI with OVCAR-8 ovarian was 25 µM; in the experiment on HOP-62 NSCLC, 28.1 µM; in the experiment on NCI-H460 lung, 49.4 µM; in the experiment on UACC-257 melanoma, 3.38 µM.
Regarding `COc1cccc(N2C(=O)c3c(c4[nH]c5ccccc5c4c4ccc(C(C)(C)C)cc34)C2=O)c1`, the TGI in the experiment on SR leukemia, in the experiment with RXF 393 renal, with U251 CNS, in the experiment on SNB-75 CNS, in the experiment on HCT-116 colon and in the experiment on SF-295 CNS was over 100 µM throughout. The TGI in the experiment with OVCAR-8 ovarian, with HOP-62 NSCLC, with NCI-H460 lung and in the experiment with UACC-257 melanoma was over 100 µM in each case.
`O=C(Nc1ccc(-c2nc3cc4ccccc4cc3[nH]2)cc1)c1cccc(Br)c1`: the GI50 in the experiment on SR leukemia is 2.34 µM; in the experiment with RXF 393 renal it was 1.9 µM; in the experiment on U251 CNS it was 5.23 µM; in the experiment with SNB-75 CNS it was 12.4 µM; with HCT-116 colon, 3.89 µM; with SF-295 CNS it was 20.7 µM. The GI50 with OVCAR-8 ovarian is 3.43 µM; with HOP-62 NSCLC it was 7.28 µM; with NCI-H460 lung, 3.36 µM; in the experiment with UACC-257 melanoma it was 21 µM. The TGI with SR leukemia was 8.66 µM; with RXF 393 renal, 8.28 µM; in the experiment on U251 CNS, 19 µM; in the experiment with SNB-75 CNS, 26.4 µM; in the experiment on HCT-116 colon, over 100 µM; in the experiment with SF-295 CNS, 48.1 µM. Also, the TGI in the experiment on OVCAR-8 ovarian was 18.9 µM; in the experiment with HOP-62 NSCLC, 20.4 µM; with NCI-H460 lung, 13 µM; in the experiment on UACC-257 melanoma, 52.3 µM.
`CCNC(=O)C[C@@H]1N=C(c2ccc(Cl)cc2)c2cc(OC)ccc2-n2c(C)nnc21`: the GI50 was 0.567 µM with SR leukemia; 8.9 µM in the experiment on RXF 393 renal; over 67.8 µM in the experiment with U251 CNS; 0.034 µM in the experiment with SNB-75 CNS; 5.73 µM with HCT-116 colon; 8.9 µM in the experiment with OVCAR-8 ovarian. Also, the GI50 is 2.1 µM in the experiment with HOP-62 NSCLC, over 100 µM with NCI-H460 lung and 2 µM in the experiment on UACC-257 melanoma. The TGI in the experiment on SR leukemia is over 100 µM; in the experiment on RXF 393 renal, over 100 µM; in the experiment on U251 CNS it was over 100 µM; in the experiment on SNB-75 CNS it was 1.6 µM; in the experiment on HCT-116 colon it was over 100 µM; with SF-295 CNS, over 100 µM. For the same compound, the TGI with OVCAR-8 ovarian, in the experiment with HOP-62 NSCLC, with NCI-H460 lung and with UACC-257 melanoma was over 100 µM in each case.
As to `CN(C)CCCCN1CCc2c(n(C)c3ccccc23)C1=O`, the GI50 is 53.3 µM and 12.7 µM in the experiment with SR leukemia; 72.4 µM and 34.1 µM with U251 CNS; 54.6 µM and 24.2 µM in the experiment with NCI-H460 lung. Further, the TGI is > 100 µM and 35.9 µM in the experiment with SR leukemia; 84.7 µM and > 90.5 µM in the experiment on RXF 393 renal; 99.5 µM and > 60.1 µM with U251 CNS; 71.3 µM and 60.8 µM with SNB-75 CNS; 75.6 µM and 45.1 µM with HCT-116 colon; 71.9 µM and 49.6 µM with SF-295 CNS. For the same compound, the TGI with OVCAR-8 ovarian was over 100 µM; in the experiment on HOP-62 NSCLC, > 80.8 µM and 63.7 µM; in the experiment on NCI-H460 lung, > 87.1 µM and 49.8 µM; with UACC-257 melanoma it was 28.7 µM and 31.4 µM.
